# Results published in patent US6897209B2, “Labelled factor XIIIa substrates” (GE Healthcare Limited, priority 1997, dated 2005).
# Columns and labels:
# [1] = Normal rat biodistribution; format: in vivo; conditions: i.v., male Wistar rats, Mean±SD n=3
# Procedure: The resolution of a clot image is dependant on the combination of rate of incorporation of the radiopharmaceutical and its blood/tissues clearance rate. For this reason the biodistribution of several compounds has been determined in rats. Male Wistar (100-150 g) rats were injected i.v. with 0.1-0.2 ml of radiolabelled tracer solution (8 MBq/ml) and dissected at different times post-injection. The % ID in each of the selected tissues was measured. Some animals were kept in metabolism cages to be able to determine the % ID excreted in urine and faeces. The dissection times used for the majority of the agents was 2, 15, 30, 60, 240 min. Data are shown as % ID, Mean±SD, (n=3).
# Factor XIIIa = molecular target: T1, Factor XIIIa (Homo sapiens, UniProt P00488); assay: Factor XIIIa dependency of incorporation (dimethylcasein uptake, normal vs Factor XIII deficient plasma); format: biochemical; conditions: 1 KBq/ml, 60 minutes; uptake in normal plasma minus Factor XIII deficient plasma
# T1 construct: Factor XIII is transformed into its active form Factor XIIIa by thrombin in the presence of calcium ions; from tissue; host or cells: human plasma
# T1 sequence (P00488 39-732 limits assumed): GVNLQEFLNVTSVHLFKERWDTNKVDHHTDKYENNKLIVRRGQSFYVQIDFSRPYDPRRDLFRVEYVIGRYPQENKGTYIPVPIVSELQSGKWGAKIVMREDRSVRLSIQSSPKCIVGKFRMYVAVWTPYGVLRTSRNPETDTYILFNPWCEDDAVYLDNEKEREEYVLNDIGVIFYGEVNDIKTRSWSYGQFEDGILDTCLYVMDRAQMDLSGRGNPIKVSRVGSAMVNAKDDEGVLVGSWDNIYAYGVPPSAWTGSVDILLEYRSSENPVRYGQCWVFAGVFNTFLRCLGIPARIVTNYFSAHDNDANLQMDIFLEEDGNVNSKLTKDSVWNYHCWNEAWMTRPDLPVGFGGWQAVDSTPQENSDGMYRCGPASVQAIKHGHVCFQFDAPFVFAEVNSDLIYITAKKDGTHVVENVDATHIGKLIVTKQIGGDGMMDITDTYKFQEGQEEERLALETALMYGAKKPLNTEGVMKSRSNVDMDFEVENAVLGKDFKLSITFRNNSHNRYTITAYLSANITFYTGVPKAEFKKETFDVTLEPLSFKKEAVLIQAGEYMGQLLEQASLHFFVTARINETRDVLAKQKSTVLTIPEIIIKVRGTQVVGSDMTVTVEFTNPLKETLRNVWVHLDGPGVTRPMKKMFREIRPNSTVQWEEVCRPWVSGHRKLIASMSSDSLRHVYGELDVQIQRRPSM
# Procedure: The assay was changed by replacing the mercaptoethanol with aprotinin at a final concentration of 2 μg/ml, and dimethylcasein (DMC) was used instead of casein.
# [2] = test system: clots induced in rat inferior vena cava; assay: Incorporation into clots induced in a rat model (rat inferior vena cava model); format: in vivo; conditions: rat IVC model; for Clot/Blood / Clot/Heart / Clot/Liver / Clot/Lung: 60 min; for % ID/g (clot uptake) / Relative conc (cpm/g of clot by dose/g animal): compound injected 5 min post-induction, clot removed after 60 min
# Procedure: The rats (Male Wistar, 250-350 g) were anaesthetised with 15% urethane. After laparotomy, the vena cava was isolated and freed of surrounding fat tissue. […] The average weight of the clots formed in this model was around 27 mg, n=32, (5-50 mg range). The so compounds were injected 5 min post-induction. After 60 min the animals were sacrificed and the clot removed, weighed and counted. Other tissues e.g. blood, lung, heart, were also dissected and counted. The uptake of tracer into the clot was determined as the relative concentration (cpm/g of clot by dose/g animal ) and clot to background tissue.
# human plasma clots [3] = molecular target: T2, human plasma clots (Homo sapiens, UniProt P00488); assay: Incorporation into human plasma clots (in vitro plasma clot assay); format: biochemical; conditions: for % specific uptake*: % retained with thrombin − % retained no thrombin; for % retained in plasma clot assay (with thrombin): human plasma with thrombin and calcium chloride, 60 minutes, ca. 20° C.
# T2 construct: Factor XIII is transformed into its active form Factor XIIIa by thrombin in the presence of calcium ions; from tissue; host or cells: human plasma, clotted in vitro with thrombin and calcium chloride
# T2 sequence (P00488 39-732): T1 sequence (P00488 39-732 limits assumed)
# Procedure: (§1) Incorporation of radiolabelled substrates into fibrin was investigated by induction of an in vitro human plasma clot in the following manner. To a siliconised 5 ml glass vial was added, (a) 800 μl of Tris(hydroxymethyl)aminomethane buffered saline pH 7.5 containing calcium chloride (50 mM Tris, 150 mM sodium chloride, 4 mM calcium chloride.), (b) 40 μl of physiological salt solution containing 100 units of thrombin per ml, (c) 400 μl of human plasma containing the radiolabelled substrate at a concentration of typically 10 kBq/ml. To aid induction of clot a roughened glass rod was added to the reaction vial. Control vials were prepared similarly but with the omission of thrombin and calcium chloride.
# (§2) The proportion of total radioactivity was calculated by counting in suitable detection apparatus.
# (§3) The fraction of radioactivity retained on the filter, after subtraction of the non-specific binding determined from the control, is a measure of incorporation into the filtered clots.
# human plasma clots [4] = assay: as above; format: biochemical; conditions: control vials without thrombin and calcium chloride, 60 minutes
# Procedure: as §1, §2, §3
compound,measurement,setting,value
"CC(=NO)C(C)(C)NCC(C)(CNC(=O)CCCCCN)CNC(C)(C)C(C)=NO (stereo not shown) [Compound 4, 3,3,6,9,9-pentamethyl-6-N-(6aminohexoyl)aminomethyl-4,8-diazaundecane-2,10-dione dioxime]",% ID Blood,[1]; 2 min post-injection,10.33 ± 1.2 % ID
same,% ID GI Tract,[1]; 2 min post-injection,13.6 ± 0.8 % ID
same,% ID Heart,[1]; 2 min post-injection,0.33 + 0.06 % ID
same,% ID Kidney,[1]; 2 min post-injection,8.34 ± 2.7 % ID
same,% ID Liver,[1]; 2 min post-injection,19.9 ± 0.87 % ID
same,% ID Lung,[1]; 2 min post-injection,1.08 ± 0.15 % ID
same,% ID Muscle,[1]; 2 min post-injection,22.6 ± 0.8 % ID
same,% ID Urine,[1]; 2 min post-injection,2.44 ± 1.68 % ID
same,% ID Blood,[1]; 30 min post-injection,0.98 ± 0.18 % ID
same,% ID GI Tract,[1]; 30 min post-injection,62.7 ± 2.7 % ID
same,% ID Heart,[1]; 30 min post-injection,0.04 + 0.02 % ID
same,% ID Kidney,[1]; 30 min post-injection,2.39 ± 0.81 % ID
same,% ID Liver,[1]; 30 min post-injection,5.06 ± 0.89 % ID
same,% ID Lung,[1]; 30 min post-injection,0.16 % ID
same,% ID Muscle,[1]; 30 min post-injection,5.27 ± 0.4 % ID
same,% ID Urine,[1]; 30 min post-injection,19.49 ± 1.96 % ID
same,% ID Blood,[1]; 60 min post-injection,0.43 ± 0.07 % ID
same,% ID GI Tract,[1]; 60 min post-injection,68.6 ± 0.4 % ID
same,% ID Heart,[1]; 60 min post-injection,0.02 + 0.02 % ID
same,% ID Kidney,[1]; 60 min post-injection,1.49 ± 0.04 % ID
same,% ID Liver,[1]; 60 min post-injection,5.3 ± 0.9 % ID
same,% ID Lung,[1]; 60 min post-injection,0.1 ± 0.04 % ID
same,% ID Muscle,[1]; 60 min post-injection,2.26 ± 0.05 % ID
same,% ID Urine,[1]; 60 min post-injection,18.81 ± 0.85 % ID
same,% ID Blood,[1]; 240 min post-injection,0.21 ± 0.08 % ID
same,% ID GI Tract,[1]; 240 min post-injection,70.1 ± 1.9 % ID
same,% ID Heart,[1]; 240 min post-injection,0.01 + 0.04 % ID
same,% ID Kidney,[1]; 240 min post-injection,1.51 ± 0.02 % ID
same,% ID Liver,[1]; 240 min post-injection,3.81 ± 0.92 % ID
same,% ID Lung,[1]; 240 min post-injection,0.06 ± 0.01 % ID
same,% ID Muscle,[1]; 240 min post-injection,1.94 ± 0.35 % ID
same,% ID Urine,[1]; 240 min post-injection,19.88 ± 3.03 % ID
same,% specific DMC casein uptake,Factor XIIIa,2%
same,Clot/Blood,[2],2.3
same,Clot/Heart,[2],4.0
same,Clot/Liver,[2],0.27
same,Clot/Lung,[2],2.7
same,% ID/g (clot uptake),[2],0.18 ± 0.06 % ID/g
same,Relative conc (cpm/g of clot by dose/g animal),[2],0.52 ± 0.2
same,% specific uptake*,human plasma clots [3],2.6%
same,% retained in plasma clot assay (with thrombin),human plasma clots [3],3%
same,% retained in plasma clot assay (no thrombin),human plasma clots [4],0.4%
"CC(=NO)C(C)(C)NCC(C)(CNC(=O)[C@@H](Cc1ccccc1)NC(=O)CCCCCN)CNC(C)(C)C(C)=NO (stereo partly drawn) [Compound 5, 3,3,6,9,9-pentamethyl-6-N-[N-(6-aminohexanoyl)-D-phenylalanyl]aminomethyl-4,8-diazaundecane-2,10-dione dioxime]",% specific DMC casein uptake,Factor XIIIa,10%
same,% specific uptake*,human plasma clots [3],4.1%
same,% retained in plasma clot assay (with thrombin),human plasma clots [3],6%
same,% retained in plasma clot assay (no thrombin),human plasma clots [4],1.9%
"1-(4-(N-(5-aminopentyl)-amidosulphonyl)benzyl)-1,4,8,11-tetraazacyclotetradecane [Compound 20]",% retained in plasma clot assay (no thrombin),human plasma clots [4],0.6%
"CC(=NO)C(C)(C)NCC(C)(CNC(=O)N1CCN(CNC(=O)c2ccc(S(=O)(=O)NCCCCCN)cc2)CC1)CNC(C)(C)C(C)=NO (stereo not shown) [Compound 11, 3,3,6,9,9-pentamethyl-6-N-[4-N-{4-(N-(5-aminopentyl)amidosulphonyl)benzoyl}aminomethylpiperazinylcarbonyl]aminomethyl-4,8-diazaundecane-2,10-dione dioxime]",% specific DMC casein uptake,Factor XIIIa,24%
same,% specific uptake*,human plasma clots [3],12.8%
same,% retained in plasma clot assay (with thrombin),human plasma clots [3],16%
same,% retained in plasma clot assay (no thrombin),human plasma clots [4],3.2%
"CC(=NO)C(C)(C)NCC(C)(CNC(=O)c1ccc(NC(=O)CCCCCN)cc1)CNC(C)(C)C(C)=NO (stereo not shown) [Compound 6, 3,3,6,9,9-pentamethyl-6-N-[4-N-(6aminohexanoyl)aminobenzoyl]aminomethyl-4,8-diazaundecane-2.10-dione dioxime]",% specific DMC casein uptake,Factor XIIIa,13%
same,% specific uptake*,human plasma clots [3],1.5%
same,% retained in plasma clot assay (with thrombin),human plasma clots [3],2%
same,% retained in plasma clot assay (no thrombin),human plasma clots [4],0.5%
"CC(=NO)C(C)(C)NCC(C)(CNC(=O)c1ccc(S(=O)(=O)NCCSCCN)cc1)CNC(C)(C)C(C)=NO (stereo not shown) [Compound 9, 3,3,6,9,9-pentamethyl-6-(4-(N-[(S-aminoethyl)thioethyl]amidosulphonyl)benzamidomethyl)4,8-diazaundecane-2,10-dione dioxime]",% specific DMC casein uptake,Factor XIIIa,29%
same,% specific uptake*,human plasma clots [3],15.5%
same,% retained in plasma clot assay (with thrombin),human plasma clots [3],20%
same,% retained in plasma clot assay (no thrombin),human plasma clots [4],4.5%
"CC(=NO)C(C)(C)NCC(C)(CN)CNC(C)(C)C(C)=NO (stereo not shown) [Compound 2, 6-aminomethyl-3,3,6,9,9-pentamethyl-4,8-diazaundecane-2, 1 0-dione dioxime]",% specific uptake*,human plasma clots [3],1.7%
same,% retained in plasma clot assay (with thrombin),human plasma clots [3],2%
same,% retained in plasma clot assay (no thrombin),human plasma clots [4],0.3%
"CC(=O)SCC(=O)NCC(=O)NCC(=O)NCC(=O)NCCCNC(=O)c1ccc(S(=O)(=O)NCCCCCN)cc1 [Compound 23, N-[S-acetyl-mercaptoacatylglycylglycylglycyl)-N′-(4-N-(5-aminopentyl)amidosulphonyl)benzoyl propane-1,3-diamine]",% specific DMC casein uptake,Factor XIIIa,24.5%
same,% specific uptake*,human plasma clots [3],14.2%
same,% retained in plasma clot assay (with thrombin),human plasma clots [3],16%
same,% retained in plasma clot assay (no thrombin),human plasma clots [4],0.8%
"3,3,6,9,9-pentamethyl-6-N-[α-N-(4-N-(5-aminopentyl)amidosulphonyl)benzoyl)amino-polethyleneglycol)-ω-carbonyl]aminomethyl-4,8-diazaundecane-2,10-dione dioxime [Compound 14]",Clot/Blood,[2],1.3
same,Clot/Heart,[2],2.8
same,Clot/Liver,[2],2.6
same,Clot/Lung,[2],1.5
same,% ID/g (clot uptake),[2],0.18 ± 0.03 % ID/g
same,Relative conc (cpm/g of clot by dose/g animal),[2],0.54 ± 0.11
same,% specific uptake*,human plasma clots [3],27.8%
same,% retained in plasma clot assay (with thrombin),human plasma clots [3],35%
same,% retained in plasma clot assay (no thrombin),human plasma clots [4],7.2%
"CC(=NO)C(C)(C)NCC(C)(CNC(=O)[C@@H](CO)NC(=O)[C@@H](CO)NC(=O)[C@@H](CO)NC(=O)c1ccc(S(=O)(=O)NCCCCCN)cc1)CNC(C)(C)C(C)=NO (stereo partly drawn) [Compound 10, 3,3,6,9,9-pentamethyl-6-N-[N-(4-N-(5aminopentyl)amidosulphonyl)benzoyl-D-serine-D-serine-D-serine]aminomethyl-4,8-diazaundecane-2,10-dione dioxime]",% specific DMC casein uptake,Factor XIIIa,6%
same,% specific uptake*,human plasma clots [3],4.7%
same,% retained in plasma clot assay (with thrombin),human plasma clots [3],5%
same,% retained in plasma clot assay (no thrombin),human plasma clots [4],0.3%
